Results from patent US20170050939A1, “SMALL MOLECULE INHIBITORS OF G PROTEIN COUPLED RECEPTOR 6 KINASE POLYPEPTIDES” (Mayo Foundation for Medical Education and Research, priority 2014, published 2017).

molecular target: T1, GRK6, recombinant full-length GST-tagged human protein (Homo sapiens, UniProt P43250); experiment: GRK6 IC50 determination (8-point concentration-response); assay type: biochemical; details: not given
T1 construct: GRK6, recombinant full-length GST-tagged human protein; GST
Excerpt: Two hundred forty compounds were further characterized by determining IC50 values in a GRK6 assay. This screen has been previously described in WO 2013/063458, which is incorporated by reference in its entirety herein.

T1 sequence (P43250 whole entry): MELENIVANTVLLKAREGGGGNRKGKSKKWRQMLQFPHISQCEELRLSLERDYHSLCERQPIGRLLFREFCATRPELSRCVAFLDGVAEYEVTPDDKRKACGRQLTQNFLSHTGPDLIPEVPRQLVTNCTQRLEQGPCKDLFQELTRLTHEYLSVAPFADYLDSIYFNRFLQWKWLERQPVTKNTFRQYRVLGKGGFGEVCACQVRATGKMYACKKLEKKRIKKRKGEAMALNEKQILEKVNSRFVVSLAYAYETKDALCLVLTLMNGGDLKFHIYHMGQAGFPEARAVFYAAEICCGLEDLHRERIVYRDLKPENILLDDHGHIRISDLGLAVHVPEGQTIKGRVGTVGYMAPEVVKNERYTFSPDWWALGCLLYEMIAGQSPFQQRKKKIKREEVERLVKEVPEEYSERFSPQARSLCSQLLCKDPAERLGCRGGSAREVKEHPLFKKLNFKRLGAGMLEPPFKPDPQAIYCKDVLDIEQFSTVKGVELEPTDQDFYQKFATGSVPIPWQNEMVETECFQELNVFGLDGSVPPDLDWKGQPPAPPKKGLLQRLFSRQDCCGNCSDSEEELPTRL

SMILES	IC50
O=C(O)CSc1nnc(-c2ccc3ccccc3c2)[nH]1 [Compound 85]	0.886 µM
Cc1cn(C)c2ccc(-c3cc(-c4nnc(SCC(=O)O)[nH]4)cc([N+](=O)[O-])c3)cc12 [Compound 230]	0.15 µM
O=C(O)CSc1nnc(-c2cc(NC(=O)c3ccoc3)cc(-c3ccc4ccccc4c3)c2)[nH]1 [Compound 67]	1.31 µM
O=C(O)CSc1nnc(-c2cc(-c3ccc4[nH]cc(-c5ccccc5)c4c3)cc([N+](=O)[O-])c2)[nH]1 [Compound 4]	0.0674 µM
Cc1noc(C)c1-c1cc(-c2ccc3ccccc3c2)cc(-c2nnc(SCC(=O)O)[nH]2)c1 [Compound 65]	1.02 µM
Cc1ccc(-c2cc(-c3ccc4ccccc4c3)cc(-c3nnc(SCC(=O)O)[nH]3)c2)o1 [Compound 63]	0.824 µM
Cn1cc(Cl)c2cc(-c3cc(-c4n[nH]c(SCC(=O)O)n4)cc([N+](=O)[O-])c3)ccc21 [Compound 227]	0.06 µM
O=C(O)CSc1nnc(-c2cccc(C(=O)Nc3ccccc3Cl)c2)[nH]1 [Compound 186]	47.8 µM
Cc1c(-c2cc(-c3nnc(SCC(=O)O)[nH]3)cc([N+](=O)[O-])c2)cnn1C [Compound 83]	0.797 µM
CCCn1ccc2cc(-c3cc(-c4nnc(SCC(=O)O)[nH]4)cc([N+](=O)[O-])c3)ccc21 [Compound 25]	0.227 µM
Cn1ccc2cc(-c3cc(-c4nnc(SCC(=O)O)[nH]4)cc(C(F)(F)F)c3)ccc21 [Compound 239]	0.729 µM
Cc1cc(-c2cc(-c3nnc(SCC(=O)O)[nH]3)cc([N+](=O)[O-])c2)cc2ccn(C)c12 [Compound 231]	0.15 µM
O=C(O)CSc1nnc(-c2cc(-c3cccc4[nH]ncc34)cc([N+](=O)[O-])c2)[nH]1 [Compound 10]	0.114 µM
Cn1nccc1-c1cc(-c2nnc(SCC(=O)O)[nH]2)cc([N+](=O)[O-])c1 [Compound 88]	1.05 µM
O=C(O)CSc1nnc(-c2ccc3c(c2)OCCO3)[nH]1 [Compound 154]	13.4 µM
CN(C)c1ccc(-c2cc(-c3nnc(SCC(=O)O)[nH]3)cc([N+](=O)[O-])c2)cc1 [Compound 52]	0.518 µM
O=C(O)CSc1nnc(-c2cccc(C(=O)NCc3ccccc3)c2)[nH]1 [Compound 176]	33.3 µM
O=C(O)CSc1nnc(-c2cccc3c2OCCCO3)[nH]1 [Compound 197]	> 100 µM
N#Cc1cc(-c2ccc3ccccc3c2)cc(-c2nnc(SCC(=O)O)[nH]2)c1 [Compound 17]	0.168 µM
O=C(O)CSc1nnc(-c2cc(-c3cnn(-c4cccc(Cl)c4)c3)cc([N+](=O)[O-])c2)[nH]1 [Compound 71]	0.131 µM
O=C(O)CSc1nnc(-c2cc(Br)cc([N+](=O)[O-])c2)n1CC(=O)O [Compound 120]	5.06 µM
Cc1cccc(-c2nnc(SCC(=O)O)[nH]2)c1 [Compound 156]	14.4 µM

SMILES	IC50
CC(=O)Nc1cc(-c2ccc3ccccc3c2)cc(-c2nnc(SCC(=O)O)[nH]2)c1 [Compound 35]	0.351 µM
O=C(O)CSc1nnc(-c2cc(-c3cccc4[nH]ccc34)cc([N+](=O)[O-])c2)[nH]1 [Compound 8]	0.101 µM
O=C(O)CSc1nnc(-c2cc(-c3ccc4c(c3)OCO4)cc([N+](=O)[O-])c2)[nH]1 [Compound 30]	0.275 µM
O=C(O)CSc1nnc(-c2cc(-c3ccc4ccccc4c3)cc([N+](=O)[O-])c2)[nH]1 [Compound 6]	0.0784 µM
O=C(O)CSc1nnc(-c2cc(-c3cncc(F)c3)cc(-c3ccc4ccccc4c3)c2)[nH]1 [Compound 55]	0.631 µM
O=C(O)CSc1nnc(-c2cc(-c3cccc(O)c3)cc([N+](=O)[O-])c2)[nH]1 [Compound 24]	0.212 µM
CS(=O)(=O)c1cccc(-c2cc(-c3nnc(SCC(=O)O)[nH]3)cc([N+](=O)[O-])c2)c1 [Compound 60]	0.779 µM
Cn1c(-c2ccccc2)cc2cc(-c3cc(-c4nnc(SCC(=O)O)[nH]4)cc([N+](=O)[O-])c3)ccc21 [Compound 48]	0.499 µM
O=C(O)CSc1nnc(-c2cccc3ccccc23)[nH]1 [Compound 174]	28.1 µM
COc1cc(-c2nnc(SCC(=O)O)[nH]2)ccc1F [Compound 114]	4.62 µM
O=C(O)CSc1nnc(-c2cc(-c3cc(Cl)c4ccccc4c3)cc([N+](=O)[O-])c2)[nH]1 [Compound 233]	0.209 µM
COc1ccc2cc(-c3nnc(SCC(=O)O)[nH]3)ccc2c1 [Compound 76]	0.653 µM
CS(=O)(=O)Nc1ccc(-c2cc(-c3nnc(SCC(=O)O)[nH]3)cc([N+](=O)[O-])c2)cc1 [Compound 47]	0.473 µM
Cn1ccc2cc(-c3cc(-c4nnc(SCC(=O)O)[nH]4)cc([N+](=O)[O-])c3)ccc21 [Compound 3]	0.06 µM
CNC(=O)c1ccc(-c2cc(-c3nnc(SCC(=O)O)[nH]3)cc([N+](=O)[O-])c2)cc1 [Compound 45]	0.44 µM
CC(C)Oc1ccc(-c2nnc(SCC(=O)O)n2CC(=O)O)cc1[N+](=O)[O-] [Compound 193]	> 200 µM
O=C(O)CSc1nnc(-c2cc(-c3ccc4[nH]ncc4c3)cc([N+](=O)[O-])c2)[nH]1 [Compound 15]	0.14 µM
O=C(O)CSc1nnc(-c2cccc3c2OCO3)[nH]1 [Compound 164]	18.5 µM
O=C(O)CSc1nnc(-c2cccc(C(=O)Nc3ccc4cn[nH]c4c3)c2)[nH]1 [Compound 130]	6.93 µM
COc1cccc(NC(=O)c2cccc(-c3nnc(SCC(=O)O)[nH]3)c2)c1 [Compound 151]	12.9 µM
O=C(O)CSc1nnc(-c2cc(-c3ccc4[nH]c(-c5ccccc5)cc4c3)cc([N+](=O)[O-])c2)[nH]1 [Compound 33, 2-((3-(3-nitro-5-(2-phenyl-1H-indol-5-yl)phenyl)-1H-1,2,4-triazol-5-yl)thio)acetic acid]	0.302 µM

The next lines start with the values.

IC50	SMILES
1.86 µM	O=C(O)CSc1nnc(-c2cc(-c3ccncc3)cc(-c3ccc4ccccc4c3)c2)[nH]1 [Compound 69]
12.4 µM	O=C(O)CSc1nnc(-c2cccc(Oc3ccccc3)c2)[nH]1 [Compound 150]
0.751 µM	O=C(O)CSc1nnc(-c2cc(-c3ccc4ccccc4c3)cc(-c3cnccc3F)c2)[nH]1 [Compound 58]
1.58 µM	COc1ncccc1-c1cc(-c2ccc3ccccc3c2)cc(-c2nnc(SCC(=O)O)[nH]2)c1 [Compound 68]
1.57 µM	O=C(O)CSc1nnc(-c2cc(C(=O)NCc3ccccc3)cc([N+](=O)[O-])c2)[nH]1 [Compound 94]
2.75 µM	CC(C)CNC(=O)c1cc(-c2nnc(SCC(=O)O)[nH]2)cc([N+](=O)[O-])c1 [Compound 100]
6.45 µM	O=C(O)CSc1nnc(-c2ccc3[nH]cnc3c2)[nH]1 [Compound 125]
0.118 µM	CCn1ccc2cc(-c3cc(-c4nnc(SCC(=O)O)[nH]4)cc([N+](=O)[O-])c3)ccc21 [Compound 11]
0.122 µM	O=C(O)CSc1nnc(-c2cc(-c3ccc4cc[nH]c4c3)cc([N+](=O)[O-])c2)[nH]1 [Compound 12]
3.3 µM	COc1cc(-c2nnc(SCC(=O)O)[nH]2)cc(C)c1O [Compound 103]
0.184 µM	Cn1ncc2cc(-c3cc(-c4nnc(SCC(=O)O)[nH]4)cc([N+](=O)[O-])c3)ccc21 [Compound 21]
3.39 µM	O=C(O)CSc1nnc(-c2ccc3ncccc3c2)[nH]1 [Compound 107]
2.49 µM	Cn1nc(C(F)(F)F)cc1-c1cc(-c2nnc(SCC(=O)O)[nH]2)cc([N+](=O)[O-])c1 [Compound 97]
0.262 µM	O=C(O)CSc1nnc(-c2cc(-c3ccc4ccccc4c3)cc(C3C=NN=C3)c2)[nH]1 [Compound 28]
3.08 µM	O=C(O)CSc1nnc(-c2ccc3occc3c2)[nH]1 [Compound 102]
0.359 µM	O=C(O)CSc1nnc(-c2cc(-c3cccc4cnccc34)cc([N+](=O)[O-])c2)[nH]1 [Compound 37]

same assay, conditions: 20 nM GRK6, 12 μM ATP (Km), 1 μM Peptide 216, 7 h incubation

SMILES	IC50
O=C(O)CSc1nnc(-c2ccc(-n3ccnc3)cc2)[nH]1 [Compound 132]	7.36 µM
N#Cc1cccc(-c2nnc(SCC(=O)O)[nH]2)c1 [Compound 96]	2.31 µM
O=C(O)CSc1nnc(-c2cc(C(=O)O)ccc2F)[nH]1 [Compound 191]	81.7 µM
COc1cc(-c2nnc(SCC(=O)O)[nH]2)ccc1OC(=O)C1CC1 [Compound 139]	8.83 µM
COc1cc(F)c(-c2nnc(SCC(=O)O)[nH]2)c(F)c1 [Compound 181]	38.5 µM
O=C(O)CSc1nnc(-c2cccc(F)c2F)[nH]1 [Compound 145]	10.7 µM
COc1ccc(-c2nnc(SCC(=O)O)[nH]2)c(O)c1 [Compound 169]	20.9 µM
COc1cc(-c2nnc(SCC(=O)O)[nH]2)cc(O)c1OC [Compound 168]	20.7 µM
COc1cc(F)cc(-c2nnc(SCC(=O)O)[nH]2)c1 [Compound 98]	2.61 µM
O=C(O)CSc1nnc(-c2ccc(N3CCCCC3)cc2F)[nH]1 [Compound 180]	35.7 µM
O=C(O)CSc1nnc(-c2cccc(F)c2)[nH]1 [Compound 115]	4.7 µM
CC(=O)c1cccc(-c2nnc(SCC(=O)O)[nH]2)c1 [Compound 110]	4.11 µM

Results, then the compound that gave them:

IC50	SMILES
3.02 µM	O=C(O)CSc1nnc(-c2cccc(C(F)(F)F)c2)[nH]1 [Compound 101]
4.47 µM	O=C(O)CSc1nnc(-c2cccc(-n3cncn3)c2)[nH]1 [Compound 112]
7.37 µM	O=C(O)CSc1nnc(-c2ccc(-c3ccccc3)cc2)[nH]1 [Compound 133]
25.8 µM	CCN(CC)c1ccc(-c2nnc(SCC(=O)O)[nH]2)c(O)c1 [Compound 173]
7.3 µM	O=C(O)CSc1nnc(-c2ccc(O)c(F)c2)[nH]1 [Compound 131]
4.99 µM	COc1ccc(-c2nnc(SCC(=O)O)[nH]2)cc1C [Compound 118]
1.4 µM	O=C(O)CSc1nnc(-c2cccc([N+](=O)[O-])c2)[nH]1 [Compound 92]
17.5 µM	C[S+]([O-])c1cccc(-c2nnc(SCC(=O)O)[nH]2)c1 (stereo not drawn) [Compound 162]
40 µM	CN(C)Cc1ccc(-c2nnc(SCC(=O)O)[nH]2)cc1 [Compound 184]
8.23 µM	COc1cc(-c2nnc(SCC(=O)O)[nH]2)cc(OC)c1OC [Compound 137]
